Reference: paper PMC12851022, “Targeting the Spliceosomal Protein USP39 Through Allosteric Ligands and PROTAC‐Induced Degradation” (Angewandte Chemie (International Ed. in English), 2025)

Assays:
[1] = target: T1, USP39-OFP (Homo sapiens, UniProt Q53GS9); assay: In-cell fluorescence degradation assay in HeLa-USP39-OFP cells; type: cell-based; conditions: 50 nM, 16-h serum starvation, 24-h treatment
T1 construct: expressed in transfected cells; host or cells: HeLa
Experimental: To evaluate the degradation efficacy of USP39_PROTACs, we adapted our recently developed cellular fluorescence assay in HeLa cells transiently overexpressing USP39‐OFP (HeLa‐USP39‐OFP).^[ [32] ^] Various experimental conditions were tested, including different initial seeding densities, the presence or absence of serum starvation, varying treatment durations, and compound concentration gradients (Figure 4a). Among these, a 16‐h serum starvation followed by a 24‐h treatment provided the most consistent and reproducible degradation of USP39 and was used for further experiments. Under these experimental conditions, a series of CRBN‐ and VHL‐based PROTACs were evaluated in an in‐cell fluorescence assay at a concentration of 50 nM to assess their ability to induce target protein degradation (Figure 4b, Table SI4). […]
Figure 4 Effective and selective degradation of USP39 in cells by USP39‐PROTACs. a) Optimization of cellular degradation assay in HeLa cells transiently overexpressing USP39‑OFP (HeLa‐USP39‐OFP). […] Western blot comparing USP39 levels in VHL WT and VHL KO HeLa cells treated with USP39_PROTAC_V1. k) Fluorescence assay in HEK293T cells co‐expressing USP39‑OFP and either VHL_WT‑EGFP or VHL_m (Δ91–121). […]
T1 sequence (P40337 whole entry, one chain of several, further chain): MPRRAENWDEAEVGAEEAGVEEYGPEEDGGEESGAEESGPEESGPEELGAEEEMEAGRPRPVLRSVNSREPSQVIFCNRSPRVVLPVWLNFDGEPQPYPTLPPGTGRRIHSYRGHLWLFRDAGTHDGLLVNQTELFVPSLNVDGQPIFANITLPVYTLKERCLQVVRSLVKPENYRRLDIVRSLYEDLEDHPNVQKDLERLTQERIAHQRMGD
T1 sequence (Q15370 whole entry partner, one chain of several): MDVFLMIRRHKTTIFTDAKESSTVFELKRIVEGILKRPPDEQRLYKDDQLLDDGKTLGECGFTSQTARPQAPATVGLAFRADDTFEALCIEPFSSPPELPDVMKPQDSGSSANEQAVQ
T1 sequence (Q15369 whole entry partner, one chain of several): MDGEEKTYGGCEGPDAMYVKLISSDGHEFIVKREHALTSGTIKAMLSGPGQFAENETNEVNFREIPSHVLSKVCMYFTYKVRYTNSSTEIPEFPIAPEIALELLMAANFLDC

[2] = target: T2, USP39-OFP (Homo sapiens, UniProt Q53GS9); assay: Fluorescence degradation assay in HEK293T cells co-expressing USP39-OFP and VHL_m (Δ91–121); type: cell-based
T2 construct: expressed in transfected cells; host or cells: HEK293T
T2 sequence (Q53GS9 1-565): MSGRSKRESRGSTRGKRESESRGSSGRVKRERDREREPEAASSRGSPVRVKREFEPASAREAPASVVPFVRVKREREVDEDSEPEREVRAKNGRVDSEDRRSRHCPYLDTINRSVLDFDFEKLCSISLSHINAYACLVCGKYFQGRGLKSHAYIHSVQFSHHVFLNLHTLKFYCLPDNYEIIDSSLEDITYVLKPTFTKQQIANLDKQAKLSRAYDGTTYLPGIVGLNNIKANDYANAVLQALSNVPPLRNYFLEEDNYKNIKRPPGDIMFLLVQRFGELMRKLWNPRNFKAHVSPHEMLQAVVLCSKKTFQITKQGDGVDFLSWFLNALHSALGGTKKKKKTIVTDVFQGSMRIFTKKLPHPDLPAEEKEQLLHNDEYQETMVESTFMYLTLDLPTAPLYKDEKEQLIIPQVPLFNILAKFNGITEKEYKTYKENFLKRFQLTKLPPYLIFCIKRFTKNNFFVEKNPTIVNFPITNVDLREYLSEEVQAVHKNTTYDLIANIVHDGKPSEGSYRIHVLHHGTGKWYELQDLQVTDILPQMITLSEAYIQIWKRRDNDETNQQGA
Experimental: Figure 4 Effective and selective degradation of USP39 in cells by USP39‐PROTACs. a) Optimization of cellular degradation assay in HeLa cells transiently overexpressing USP39‑OFP (HeLa‐USP39‐OFP). […] GAPDH was used as a loading control. g) Proteasome dependence of USP39 degradation. HeLa‐WT cells were co‐treated with MG132 (0.25 µM) or DMSO control and USP39_PROTAC_V1 for 24 h ST. h) Representative immunofluorescence images of HeLa‐USP39_OFP cells treated with DMSO (NT), USP39_PROTAC_V1 (10 nM, 24 h), or USP39_PROTAC_V1 + MLN4924 (1 µM), stained for USP39 (red) and nuclei (blue). i) Quantification of USP39 degradation by fluorescence microscopy, showing DC50 values of 13 nM without MLN4924 (orange) and 204 nM with MLN4924 (blue) (MLN4924 = 5 uM). j) VHL‐dependence of PROTAC‐induced degradation. Schematic of PROTAC recruitment to VHL via hydroxyl‐proline interactions (His115, Ser111). Western blot comparing USP39 levels in VHL WT and VHL KO HeLa cells treated with USP39_PROTAC_V1. k) Fluorescence assay in HEK293T cells co‐expressing USP39‑OFP and either VHL_WT‑EGFP or VHL_m (Δ91–121). […] Comparison of untreated (NT) and USP39_PROTAC_V1–treated (10 nM, 24 h) samples. Percent spliced/unspliced (S/U) ratios are shown, reflecting USP39‐deficiency–associated splicing defects. Data represent at least four independent biological replicates. […]

[3] = tested on: HeLa-WT proteome; assay: Proteome-wide LC-MS/MS and western blot selectivity analysis in HeLa-WT cells; type: cell-based, human
Experimental: Figure 4 Effective and selective degradation of USP39 in cells by USP39‐PROTACs. a) Optimization of cellular degradation assay in HeLa cells transiently overexpressing USP39‑OFP (HeLa‐USP39‐OFP). […] GAPDH was used as a loading control. g) Proteasome dependence of USP39 degradation. HeLa‐WT cells were co‐treated with MG132 (0.25 µM) or DMSO control and USP39_PROTAC_V1 for 24 h ST. h) Representative immunofluorescence images of HeLa‐USP39_OFP cells treated with DMSO (NT), USP39_PROTAC_V1 (10 nM, 24 h), or USP39_PROTAC_V1 + MLN4924 (1 µM), stained for USP39 (red) and nuclei (blue). i) Quantification of USP39 degradation by fluorescence microscopy, showing DC50 values of 13 nM without MLN4924 (orange) and 204 nM with MLN4924 (blue) (MLN4924 = 5 uM). j) VHL‐dependence of PROTAC‐induced degradation. Schematic of PROTAC recruitment to VHL via hydroxyl‐proline interactions (His115, Ser111). Western blot comparing USP39 levels in VHL WT and VHL KO HeLa cells treated with USP39_PROTAC_V1. k) Fluorescence assay in HEK293T cells co‐expressing USP39‑OFP and either VHL_WT‑EGFP or VHL_m (Δ91–121). […] Comparison of untreated (NT) and USP39_PROTAC_V1–treated (10 nM, 24 h) samples. Percent spliced/unspliced (S/U) ratios are shown, reflecting USP39‐deficiency–associated splicing defects. Data represent at least four independent biological replicates.
To assess the selectivity of USP39 degradation, a proteome‐wide analysis was conducted using LC‐MS/MS based proteomics. […] These finding were further validated by western blot (WB) analysis, which confirmed consistent downregulation of USP39, ISG15, and NDRG1.

[4] = target: T3, USP39 (Homo sapiens, UniProt Q53GS9); assay: USP39 degradation across four cell lines (HeLa, HEK293T, LNCap, Kelly); type: cell-based; design: endogenous in cells; host or cells: HeLa-WT; HEK293T; LNCap; Kelly; conditions: for Concentration at which USP39 degradation was initiated: HeLa, HEK293T, LNCap, Kelly
T3 sequence (Q53GS9 1-565): T2 sequence (Q53GS9 1-565)

USP39 degradation in in-cell fluorescence assay [1]: robust degradation activity
Fold reduction of degradation effect in VHL_m versus VHL_WT cells [2]: more than 80 fold
Concentration above which USP39 levels recover (hook-effect) [4]: above 500 nM
Concentration at which USP39 degradation was initiated ([4]; 6 h of treatment): 5 nM
Concentration at which USP39 degradation was initiated ([4]; 24 h of treatment): 1 nM
SMILES: Cc1ncsc1-c1ccc(CNC(=O)C2CC(O)CN2C(=O)C(NC(=O)CCOCCOCCOCCNC(=O)c2csc(Nc3ccc(Cl)cc3)n2)C(C)(C)C)cc1 (centres unmarked) [USP39_PROTAC_V1]
USP39 level in proteome-wide analysis ([3]; 5 nM and 50 nM, 24 h, over 6000 detectable proteins, p < 0.0001, log2FC < -4): most significantly downregulated protein
NDRG1 and ISG15 levels (off-target) ([3]; 5 nM and 50 nM, 24 h, proteomics, validated by WB): significant downregulation
USP5 and USP10 levels (homologues) ([3]; proteomic and immunoblot analyses): remained unaffected
